These results are taken from US10633379B2, “Bromodomain inhibitors” (AbbVie Inc., priority 2016, dated 2020).

For one assay, the target named is BRD4 (BDI_K57-E168) (Homo sapiens (Human), UniProt O60885). The assay is described as follows: TR-FRET bromodomain binding assay, BRD4 BDI. The note with it: mean Ki, calculated from IC50, probe Kd and probe concentration. The gist of the method: (§1)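 Probe displacement measured by TR-FRET after 1 h at room temperature, in 20 mM sodium phosphate pH 6.0 and 2% DMSO. BDI used 12 nM protein with 100 nM probe, BDII 4 nM with 30 nM probe, each with 1 nM europium antibody. Ki derived from fitted IC50, probe Kd and probe level.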

The next assay concerns the target BRD4 (BDII_E352-M457) (Homo sapiens (Human), UniProt O60885). Description: TR-FRET bromodomain binding assay, BRD4 BDII. The note with it: mean Ki, calculated from IC50, probe Kd and probe concentration. The essentials: as §1

By Ki is commonly meant a dissociation constant, usually derived from enzyme kinetics or from competition with a known ligand.

For the molecule `CCNC(=O)c1cc2c(-c3cc(C(C)(O)CO)ccc3Oc3c(C)cc(F)cc3Cl)cn(C)c(=O)c2[nH]1` (stereo not shown) [Example 119, 4-[2-(2-chloro-4-fluoro-6-methylphenoxy)-5-(1,2-dihydroxypropan-2-yl)phenyl]-N-ethyl-6-methyl-7-oxo-6,7-dihydro-1H-pyrrolo[2,3-c]pyridine-2-carboxamide], the figures for the Ki on BRD4 (BDI_K57-E168) and at BRD4 (BDII_E352-M457) were 346 nM and 2.2 nM, respectively.

Take `Cc1cc(F)cc(C)c1Oc1ccc(C(C)(C)O)cc1-c1cn(C)c(=O)c2[nH]c(C(=O)NC(C)(C)C(F)(F)F)cc12` [Example 55, 4-[2-(4-fluoro-2,6-dimethylphenoxy)-5-(2-hydroxypropan-2-yl)phenyl]-6-methyl-7-oxo-N-(1,1,1-trifluoro-2-methylpropan-2-yl)-6,7-dihydro-1H-pyrrolo[2,3-c]pyridine-2-carboxamide]: the Ki at BRD4 (BDI_K57-E168) is 4690 nM; at BRD4 (BDII_E352-M457), 6.9 nM.

Regarding `CCNC(=O)c1cc2c(-c3cc(C4(O)CC=CC4)ccc3Oc3c(C)cccc3C)cn(C)c(=O)c2[nH]1` [Example 5, 4-[2-(2,6-dimethylphenoxy)-5-(1-hydroxycyclopent-3-en-1-yl)phenyl]-N-ethyl-6-methyl-7-oxo-6,7-dihydro-1H-pyrrolo[2,3-c]pyridine-2-carboxamide], the values for the Ki on BRD4 (BDI_K57-E168) and at BRD4 (BDII_E352-M457) were 187 nM and 1.6 nM, respectively.

On to `CCNC(=O)c1cc2c(-c3cc(C(C)(C)O)ccc3Oc3c(C)cccc3F)cn(C)c(=O)c2[nH]1` [Example 81, N-ethyl-4-[2-(2-fluoro-6-methylphenoxy)-5-(2-hydroxypropan-2-yl)phenyl]-6-methyl-7-oxo-6,7-dihydro-1H-pyrrolo[2,3-c]pyridine-2-carboxamide], for which the results for the Ki at BRD4 (BDI_K57-E168) and at BRD4 (BDII_E352-M457) were 43 nM and 1.1 nM, respectively.

In the case of `CCNC(=O)c1cc2c(-c3cc([C@](C)(O)CO)ccc3Oc3c(C)cccc3C)cn(C)c(=O)c2[nH]1` (single isomer, unassigned) [Example 69, 4-{5-[(25)-1,2-dihydroxypropan-2-yl]-2-(2,6-dimethylphenoxy)phenyl}-N-ethyl-6-methyl-7-oxo-6,7-dihydro-1H-pyrrolo[2,3-c]pyridine-2-carboxamide], the figures for the Ki at BRD4 (BDI_K57-E168) and on BRD4 (BDII_E352-M457) were 499 nM and 2.3 nM, respectively.

Consider `CCNC(=O)c1cc2c(-c3cc(C(C)(O)CF)ccc3Oc3c(C)cc(F)cc3C)cn(C)c(=O)c2[nH]1` (stereo not shown) [Example 83, N-ethyl-4-[2-(4-fluoro-2,6-dimethylphenoxy)-5-(1-fluoro-2-hydroxypropan-2-yl)phenyl]-6-methyl-7-oxo-6,7-dihydro-1H-pyrrolo[2,3-c]pyridine-2-carboxamide], for which the Ki on BRD4 (BDI_K57-E168) is 350 nM; on BRD4 (BDII_E352-M457) it was 1.1 nM.

Take `CCNC(=O)c1cc2c(-c3cc([C@@](C)(O)CO)ccc3Oc3c(C)cccc3C)cn(C)c(=O)c2[nH]1` (single isomer, unassigned) [Example 68]: the Ki is 341 nM at BRD4 (BDI_K57-E168) and 2.2 nM on BRD4 (BDII_E352-M457).

With `CCNC(=O)c1cc2c(-c3cc(C(C)(O)CC(C)C)ccc3Oc3c(C)cccc3C)cn(C)c(=O)c2[nH]1` (stereo not shown) [Example 105, 4-[2-(2,6-dimethylphenoxy)-5-(2-hydroxy-4-methylpentan-2-yl)phenyl]-N-ethyl-6-methyl-7-oxo-6,7-dihydro-1H-pyrrolo[2,3-c]pyridine-2-carboxamide], the results for the Ki at BRD4 (BDI_K57-E168) and on BRD4 (BDII_E352-M457) were 1340 nM and 2.5 nM, respectively.

`Cc1cc(F)cc(C)c1Oc1ncc(C(C)(C)O)cc1-c1cn(C)c(=O)c2[nH]c(C(=O)NC(C)(C)C(F)(F)F)cc12` [Example 56, 4-[2-(4-fluoro-2,6-dimethylphenoxy)-5-(2-hydroxypropan-2-yl)pyridin-3-yl]-6-methyl-7-oxo-N-(1,1,1-trifluoro-2-methylpropan-2-yl)-6,7-dihydro-1H-pyrrolo[2,3-c]pyridine-2-carboxamide]: the Ki on BRD4 (BDI_K57-E168) is 917 nM; on BRD4 (BDII_E352-M457), 4.7 nM.

As for `Cc1cccc(Cl)c1Oc1ccc(C(C)(C)O)cc1-c1cn(C)c(=O)c2[nH]c(C(=O)NC(C)(C)C(F)(F)F)cc12` [Example 41, 4-[2-(2-chloro-6-methylphenoxy)-5-(2-hydroxypropan-2-yl)phenyl]-6-methyl-7-oxo-N-(1,1,1-trifluoro-2-methylpropan-2-yl)-6,7-dihydro-1H-pyrrolo[2,3-c]pyridine-2-carboxamide], the figures for the Ki on BRD4 (BDI_K57-E168) and at BRD4 (BDII_E352-M457) were 759 nM and 4.8 nM, respectively.

For the molecule `CCNC(=O)c1cc2c(-c3cc(C(C)(C)O)ccc3Oc3c(C)ccc(F)c3C)cn(C)c(=O)c2[nH]1` [Example 104, N-ethyl-4-[2-(3-fluoro-2,6-dimethylphenoxy)-5-(2-hydroxypropan-2-yl)phenyl]-6-methyl-7-oxo-6,7-dihydro-1H-pyrrolo[2,3-c]pyridine-2-carboxamide], the Ki on BRD4 (BDI_K57-E168) was 375 nM; on BRD4 (BDII_E352-M457) it was 1.2 nM.

Consider `CCNC(=O)c1cc2c(-c3cc(C(C)(O)c4ccc(F)cc4)cnc3Oc3c(C)cccc3C)cn(C)c(=O)c2[nH]1` (stereo not shown) [Example 17, 4-{2-(2,6-dimethylphenoxy)-5-[1-(4-fluorophenyl)-1-hydroxyethyl]pyridin-3-yl}-N-ethyl-6-methyl-7-oxo-6,7-dihydro-1H-pyrrolo[2,3-c]pyridine-2-carboxamide], for which the results for the Ki on BRD4 (BDI_K57-E168) and at BRD4 (BDII_E352-M457) were 467 nM and 3 nM, respectively.

For the molecule `CCNC(=O)c1cc2c(-c3cc(C(O)(CC)C4CC4)cnc3Oc3c(C)cccc3C)cn(C)c(=O)c2[nH]1` (stereo not shown) [Example 12, 4-[5-(1-cyclopropyl-1-hydroxypropyl)-2-(2,6-dimethylphenoxy)pyridin-3-yl]-N-ethyl-6-methyl-7-oxo-6,7-dihydro-1H-pyrrolo[2,3-c]pyridine-2-carboxamide], the Ki on BRD4 (BDI_K57-E168) was 97 nM; on BRD4 (BDII_E352-M457), 1.9 nM.

Turning to `CCNC(=O)c1cc2c(-c3cc(C(O)(CC)Cc4ccc(F)cc4)cnc3Oc3c(C)cccc3C)cn(C)c(=O)c2[nH]1` (stereo not shown) [Example 15, 4-{2-(2,6-dimethylphenoxy)-5-[1-(4-fluorophenyl)-2-hydroxybutan-2-yl]pyridin-3-yl}-N-ethyl-6-methyl-7-oxo-6,7-dihydro-1H-pyrrolo[2,3-c]pyridine-2-carboxamide], the inhibition constant (Ki) was 1840 nM on BRD4 (BDI_K57-E168) and 26.5 nM at BRD4 (BDII_E352-M457).

For `CCNC(=O)c1cc2c(-c3cc(C(C)(O)CC(C)C)cnc3Oc3c(C)cccc3C)cn(C)c(=O)c2[nH]1` (stereo not shown) [Example 18, 4-[2-(2,6-dimethylphenoxy)-5-(2-hydroxy-4-methylpentan-2-yl)pyridin-3-yl]-N-ethyl-6-methyl-7-oxo-6,7-dihydro-1H-pyrrolo[2,3-c]pyridine-2-carboxamide], the Ki on BRD4 (BDI_K57-E168) is 449 nM; on BRD4 (BDII_E352-M457), 3.8 nM.

As for `CCNC(=O)c1cc2c(-c3cc(C(C)(C)O)cnc3Oc3c(C)cc(C(C)(C)O)cc3C)cn(C)c(=O)c2[nH]1` [Example 124, N-ethyl-4-{5-(2-hydroxypropan-2-yl)-2-[4-(2-hydroxypropan-2-yl)-2,6-dimethylphenoxy]pyridin-3-yl}-6-methyl-7-oxo-6,7-dihydro-1H-pyrrolo[2,3-c]pyridine-2-carboxamide], the figures for the Ki on BRD4 (BDI_K57-E168) and on BRD4 (BDII_E352-M457) were 269 nM and 1.7 nM, respectively.

Take `CCNC(=O)c1cc2c(-c3cc(C(C)(C)O)cnc3Oc3c(Cl)cc(F)cc3Cl)cn(C)c(=O)c2[nH]1` [Example 101, 4-[2-(2,6-dichloro-4-fluorophenoxy)-5-(2-hydroxypropan-2-yl)pyridin-3-yl]-N-ethyl-6-methyl-7-oxo-6,7-dihydro-1H-pyrrolo[2,3-c]pyridine-2-carboxamide]: the results for the inhibition constant (Ki) on BRD4 (BDI_K57-E168) and on BRD4 (BDII_E352-M457) were 110 nM and 2.5 nM, respectively.

`Cc1cccc(Cl)c1Oc1ncc(C(C)(C)O)cc1-c1cn(C)c(=O)c2[nH]c(C(=O)NC(C)(C)C)cc12` [Example 37, N-tert-butyl-4-[2-(2-chloro-6-methylphenoxy)-5-(2-hydroxypropan-2-yl)pyridin-3-yl]-6-methyl-7-oxo-6,7-dihydro-1H-pyrrolo[2,3-c]pyridine-2-carboxamide]: the Ki is 195 nM at BRD4 (BDI_K57-E168) and 3.7 nM on BRD4 (BDII_E352-M457).

Take `CCNC(=O)c1cc2c(-c3cc(C(C)(C)O)ccc3Oc3c(C)cc(F)cc3C(F)F)cn(C)c(=O)c2[nH]1` [Example 98, 4-{2-[2-(difluoromethyl)-4-fluoro-6-methylphenoxy]-5-(2-hydroxypropan-2-yl)phenyl}-N-ethyl-6-methyl-7-oxo-6,7-dihydro-1H-pyrrolo[2,3-c]pyridine-2-carboxamide]: the Ki is 682 nM at BRD4 (BDI_K57-E168) and 9.6 nM on BRD4 (BDII_E352-M457).

For `Cn1cc(-c2cc(C(C)(C)O)cnc2Oc2c(Cl)cc(F)cc2Cl)c2cc(C(=O)NC(C)(C)C)[nH]c2c1=O` [Example 100, N-tert-butyl-4-[2-(2,6-dichloro-4-fluorophenoxy)-5-(2-hydroxypropan-2-yl)pyridin-3-yl]-6-methyl-7-oxo-6,7-dihydro-1H-pyrrolo[2,3-c]pyridine-2-carboxamide], the Ki at BRD4 (BDI_K57-E168) is 115 nM; on BRD4 (BDII_E352-M457) it was 5.6 nM.

As for `Cc1cccc(Cl)c1Oc1ccc(C(C)(C)O)cc1-c1cn(C)c(=O)c2[nH]c(C(=O)NC3(C)CC3(F)F)cc12` (stereo not shown) [Example 42, 4-[2-(2-chloro-6-methylphenoxy)-5-(2-hydroxypropan-2-yl)phenyl]-N-(2,2-difluoro-1-methylcyclopropyl)-6-methyl-7-oxo-6,7-dihydro-1H-pyrrolo[2,3-c]pyridine-2-carboxamide], the Ki was 704 nM on BRD4 (BDI_K57-E168) and 5.7 nM at BRD4 (BDII_E352-M457).

Consider `CCNC(=O)c1cc2c(-c3cc(C(C)(C)O)cnc3Oc3c(C)cccc3C(F)(F)F)cn(C)c(=O)c2[nH]1` [Example 48, N-ethyl-4-{5-(2-hydroxypropan-2-yl)-2-[2-methyl-6-(trifluoromethyl)phenoxy]pyridin-3-yl}-6-methyl-7-oxo-6,7-dihydro-1H-pyrrolo[2,3-c]pyridine-2-carboxamide], for which the results for the inhibition constant (Ki) at BRD4 (BDI_K57-E168) and at BRD4 (BDII_E352-M457) were 1600 nM and 6 nM, respectively.

In the case of `Cc1cc(F)cc(C)c1Oc1ccc(C(C)(C)O)cc1-c1cn(C)c(=O)c2[nH]c(C(N)=O)cc12` [Example 112, 4-[2-(4-fluoro-2,6-dimethylphenoxy)-5-(2-hydroxypropan-2-yl)phenyl]-6-methyl-7-oxo-6,7-dihydro-1H-pyrrolo[2,3-c]pyridine-2-carboxamide], the Ki on BRD4 (BDI_K57-E168) was 332 nM; on BRD4 (BDII_E352-M457) it was 2.3 nM.
